Measured values taken from patent US6852337B2, “Carvedilol-galenics” (Roche Diagnostics GmbH, priority 1998, dated 2005).

Test: In-vitro dissolution rate, USP XXII paddle method, aqueous buffer pH 4.5
Format: physicochemical
Description: In the case of drugs which cannot develop their action in the gastrointestinal zone itself, release from the drug form in the gastrointestinal tract and the subsequent resorption are the necessary condition for a therapeutic effect. Problems arise in this connection with those active substances which, because of their poor solubility or their low dissolution speed, attain so low a concentration in the gastrointestinal tract in the aqueous medium or because of obstructed release from the system of the other adjuvants, that the dissolution of the active substance is the step which determines the rate in connection with the resorption. […] The solubility and release rate are determined by standard methods, e.g. in accordance with the paddle method of USP XXII.
The in-vitro dissolution rates in this and the following examples were determined in accordance with USP XXII, paddle method in an aqueous buffer pH 4.5

SMILES	In-vitro dissolution rate after 10 minutes [%]	In-vitro dissolution rate after 20 minutes [%]	In-vitro dissolution rate after 30 minutes [%]	In-vitro dissolution rate after 60 minutes [%]
OC(COc1cccc2[nH]ccc12)CN1CCC(COc2ccccc2)CC1 (centres unmarked) [Active substance A, 4-[2-hydroxy-3-[4-(phenoxymethyl)piperidino]-propoxy]-indole]	31	43	50	58
COc1ccccc1OCCNCC(O)COc1cccc2[nH]c3ccccc3c12 (centres unmarked) [Active substance B, carvedilol]	36	46	49	56
